Measurements from patent publication US5736523A, “Antineoplastic heteronapthoquinones” (Biochem Pharma Inc., priority 1995, dated 1998).
Where two headings read alike, the source gives them in different places.

Legend:
[1] = literature; cited from earlier work
[2] = Med. Res. Rev. 1981; cited from earlier work
[3] = Med. Res. Rev. 1981; cited from earlier work; remark: listed apart in the source
[4] = system: SKVLB (Ovarian; multidrug resistant); assay: In vitro cytotoxicity, microculture tetrazolium (MTT) assay, SKVLB; type: cell-based, human; details: for IC50: SKVLB, multidrug resistant, read-out: IC50; for VLB/OV3: ratio SKVLB / SKOV3
Procedure, shortened: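 Multidrug-resistant ovarian SKVLB cells exposed 48 h at 37 °C to 1:3 serial dilutions (100 μM–1.7 nM), then 48 h in fresh medium. MTT reduction read at 570 nm after DMSO extraction; four-parameter logistic fit normalized to 0–100% survival.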

[5] = system: SKOV3 (Ovarian adenocarcinoma); assay: In vitro cytotoxicity, microculture tetrazolium (MTT) assay, SKOV3; type: cell-based, human; details: read-out: IC50
Protocol: (§1) In Vitro Cytotoxicity--Microculture Tetrazolium Assay
(§2) The microculture tetrazolium assay was used to test in vitro cytotoxicity. This assay is described in Plumb, J. A. et al., 1989 Cancer Research 49, 4435-4440, which is herein incorporated by reference. The cytotoxicity of compounds towards tumor cells is measured in vitro using the assay. This assay method is based upon the ability of live, but not dead cells to reduce the yellow water soluble dye 3-(4;5-dimethylthiazol-2-yl)-2,5-diphenyltetrazolium bromide (MTT) to its water insoluble purple formazan product.
(§3) Human Tumor Cell lines, used were:
SKOV3 (Ovarian adenocarcinoma)--provided by Dr. V. Ling,
(§4) The cells were maintained in exponential growth in culture in minimal essential media (MEM) supplemented with non-essential amino acids, and containing 15% (v/v) fetal bovine serum, 5 mM L-glutamine, 1 mM sodium pyruvate, and 0.1 U/ml insulin. All cell lines were grown at 37° C. in an atmosphere of 5% CO2 in air.
(§5) Test compounds: 20 mM in DMSO and diluted to a final concentration of 200 μM in culture medium before use.
(§6) The following is the generic description of the assay method. It should be noted that although the conditions described work well with the cells listed above, the initial plating density and the MTT concentration used should be verified for each new cell line used to test compounds.
(§7) For each assay, doxorubicin is included as an inter-assay standard. This allows us to monitor the behaviour of the assay in general, and in particular, to check that the SKVLB line has maintained its resistant phenotype.
(§8) The plate layout is done in the following manner: The assays are carried out in 96-well (8 well×12 well) microtiter plates. Serial dilutions of the compound are tested along the length of the plate. A 1:3 serial dilution of compound in culture medium covers a concentration range from 100 μM to 1.7 nM. Each concentration of compound is tested in quadruplet, allowing two compounds to be tested per plate. Wells containing no cells (blank) and cells with no test compound (control) are included on each plate.
(§9) Cells are plated out in 100 μl of culture medium in the microtiter plates at a density of around 1,500-4,000 cells per well. The plates are incubated overnight to allow the cells to become adherent after which the test compound is added (100 μl of appropriate dilution per well). The cells are incubated with test compound at 37° C. for 48 h after which the compound is replaced with fresh medium. After a further 48 h incubation at 37° C., 50 μl of MTT solution (2 mg/ml) is added to each well. The plates are incubated in the dark for 4 h at 37° C. after which the medium is removed. The MTT formazan product is extracted from the cells by the addition of 200 μl DMSO followed by 50 μl of Sorensen's buffer. The plates are shaken briefly and the absorbance at 570 nm is read using a Molecular Devices UV max plate reader. Curves are fit to the MTT assay data using a four parameter logistic equation, and the data are normalized to fit a 0% to 100% survival scale.

[6] = system: HT 29 (Colon adenocarcinoma); assay: In vitro cytotoxicity, microculture tetrazolium (MTT) assay, HT 29; type: cell-based, human; details: read-out: IC50
Protocol: as §1, §2, §3
HT 29 (Colon adenocarcinoma) ATCC catalog #HTB-38.
as §4, §5, §6, §7, §8, §9

[7] = system: T47D (Ductal carcinoma of breast); assay: In vitro cytotoxicity, microculture tetrazolium (MTT) assay, T47D; type: cell-based, human; details: read-out: IC50
Protocol: as §1, §2, §3
T47D (Ductal carcinoma of breast)--ATCC catalog #HTB-133.
as §4, §5, §6, §7, §8, §9

MAT-B = assay: In vitro antitumor activity, MAT-B; type: cell-based
Protocol: as §2, §8
(§10) Cells are plated out in 100 μl of culture medium in the microtiter plates at a density of around 1,500-4,000 cells per well. […] The plates are shaken briefly and the absorbance at 570 nm is read using a Molecular Devices UV max plate reader. […]

MAT-B/ADR = assay: In vitro antitumor activity, MAT-B/ADR; type: cell-based
Protocol: as §2, §8, §10

MCF-7 = assay: In vitro antitumor activity, MCF-7; type: cell-based
Protocol: as §2, §8, §10

MCF-7/ADR = assay: In vitro antitumor activity, MCF-7/ADR (adriamycin resistant); type: cell-based
Protocol: as §2, §8, §10

Lox (Melanoma) = assay: In vitro cytotoxicity, microculture tetrazolium (MTT) assay, Lox; type: cell-based, human; details: read-out: IC50
Protocol: as §1, §2, §3
Lox (Melanoma)--Southern Research Institute.
as §4, §5, §6, §7, §8, §9

In the case of CC1O[C@H]2CC(=O)O[C@H]2C2=C1C(=O)c1c(O)c3c(c(O)c1C2=O)[C@H]1C[C@@H](O)[C@]3(O)[C@@H](C)O1 (stereo partly drawn) [Granaticin], the antitumor activity [1] is given as “show antitumor activity”.

In the case of C[C@@H]1O[C@@H](CC(=O)O)CC2=C1C(=O)c1c(O)cccc1C2=O [nanaomycin A], the antibacterial activity [2] is listed as “potent antibacterial” and the antifungal activity [3] is listed as “antifungal activity”.

For COC(=O)C1CC2=C(C(=O)c3c(cc4ccccc4c3O)C2=O)[C@@H](O[C@H]2C[C@H](NC(=O)C(F)(F)F)[C@H](O)[C@H](C)O2)O1 (stereo partly drawn) [pyranoanthraquinone (H)], the antitumor activity [1] is listed as “possess antitumor activity”.

For C[C@H]1O[C@@H]2CC(=O)O[C@@H]2C2=C1C(=O)c1c(O)cccc1C2=O [kalafungin], the antibacterial activity [2] is listed as “potent antibacterial” and the antifungal activity [3] is listed as “antifungal activity”.

With CC(=O)[C@H]1CC2=C(C(=O)c3ccccc3C2=O)[C@H](OC2C[C@H](NC(=O)C(F)(F)F)[C@H](O)[C@H](C)O2)O1 (stereo partly drawn) [BCH1146, (1'S,1S,3R)-Methyl (5,10-dioxo-1-(2',3',6'-trideoxy-3'-trifluoroacetamido-4'-hydroxy-L-lyxohexopyranose)-3,4,5,10-tetrahydronaphtho [2,3-C]pyran-3-yl) ketone] the IC50 [4] was 6.97 µM, the VLB/OV3 [4] was 7.82 and the IC50 ([5]; SKOV3) was 0.891 µM. It also gave an IC50 ([6]; HT29) of 0.91 µM, an IC50 [7] of 5.87 µM and an IC50 (MAT-B) of 0.46 µM. For the same compound, the IC50 (MAT-B/ADR) was 0.56 µM, the IC50 (MCF-7) was 0.044 µM and the “potency in breast cancer, MCF-7, against adriamycin” value (MCF-7; breast cancer) was “less potent than adriamycin”. For the same compound, the IC50 (MCF-7/ADR; MCF-7/ADR) was 0.19 µM, the “effectiveness in the sensitive and adriamycin resistant cell line” value (MCF-7/ADR; MCF-7 sensitive vs adriamycin resistant) was “nearly as effective in the sensitive and adriamycin resistant cell line” and the IC50 (Lox (Melanoma)) was 3.82 µM.

Work on CC(NC(=O)C(F)(F)F)[C@H]1CC2=C(C(=O)c3ccccc3C2=O)[C@H](O[C@H]2C[C@H](O)[C@H](O)[C@H](C)O2)O1 (stereo partly drawn) [BCH2018, (1'S,1S,3R)-3-(trifluoroacetamidoethyl)-5,10-dioxo-1-(2',3',6'-trideoxy-3',4'-dihydroxy-L-lyxohexopyranose)-3,4,5,10-tetrahydro-1H-naphtho-[2,3-c]-pyran] yielded an IC50 ([4]; Homo sapiens) of 17.7 µM, a VLB/OV3 [4] of 5.69 and an IC50 ([5]; Homo sapiens, SK-OV-3, SKOV3) of 3.11 µM. The IC50 ([6]; Homo sapiens, HT-29, HT29) was 14.2 µM, the IC50 ([7]; Homo sapiens) was 8.56 µM and the IC50 (Lox (Melanoma); Homo sapiens) was 2.38 µM.

C=CC[C@@H]1CC2=C(C(=O)c3ccccc3C2=O)[C@@H](O[C@H]2C[C@H](NC(=O)C(F)(F)F)[C@H](O)[C@H](C)O2)O1 (mixture of isomers) [BCH2031, (1'S,1S,3S) and (1'S,1-R,3-R)-3-([2',3',6'-trideoxy-3'-trifluoroacetamido-4'-hydroxy-L-lyhohexopyranose]-5,10-dioxo-3,4,5,10-tetrahydronaphtho-[2,3-c]-pyran-3-yl)-propene] gave an IC50 ([4]; Homo sapiens) of 18 µM, a VLB/OV3 [4] of 3 and an IC50 ([5]; Homo sapiens, SK-OV-3, SKOV3) of 6 µM. For the same compound, the IC50 ([6]; Homo sapiens, HT-29, HT29) was 8.5 µM, the IC50 ([7]; Homo sapiens) was 16 µM and the IC50 (Lox (Melanoma); Homo sapiens) was 2.8 µM.

For CC(=O)[C@@H]1CC2=C(C(=O)c3ccccc3C2=O)[C@@H](O[C@@H]2O[C@H](CO)[C@@H](O)[C@H](O)[C@H]2NC(=O)N(CCCl)N=O)O1 [BCH2038, (1'R,1R,3S)-3-aceto-5,10-dioxo-1-(2-deoxy-2-chloroethyl-nitrosoureido-D-glucopyranose)-3,4,5,10-tetrahydro-1H-naphtho-[2,3-C] pyran], the IC50 [4] was 3.5 µM, the VLB/OV3 [4] was 4.16 and the IC50 ([5]; SKOV3) was 0.832 µM. The IC50 ([6]; HT29) was 2 µM, the IC50 [7] was 2 µM and the IC50 (Lox (Melanoma)) was 0.173 µM.
